Patent US20230271949A1, “GLP-1R MODULATING COMPOUNDS” (ASCLETIS BIOSCIENCE CO., LTD., priority 2022, published 2023)

Assays:
GLP-1R [1] = target: T1, GLP-1R (Homo sapiens, UniProt P43220); assay: Tag-lite binding assay (competition with GLP-1 receptors red agonist); settings: for IC50: HEK293 GLP-1 cells labeled with SNAP-Lumi4-Tb, red agonist 4.917 nM, 23° C., 2 h; for Ki: calculated from sample IC50 and red agonist Kd
Description: B. Tag-Lite Binding Assay
The cell line was constructed by WuXi.
10) Dispense cells into cell plate (1.8 M cells/well in 2 ml medium of 6-well plate, total 4 wells).
Second Day: Tag-Lite Binding Assay
3) The cell culture medium is removed from the 6-well plate and then 1 mL of Tag-lite SNAP-Lumi4-Tb diluted in Tag-lite labeling medium are added gently on the cells.
7) The testing compounds and reference compound are serially diluted with 3-fold, 10 points using Echo, then transfer 100 nL compounds to the assay plate.
8) Add the labeled cells to each well according to the plate map, 10000 cells/10 uL/well. Centrifuge the plate at 1000 rpm for 1 min.
9) Incubate the plate at 23° C., 30 min.
10) Add 50 nL of red agonist (final conc.: 4.917 nM) to destination plate using Echo.
11) Incubate the plate at 23° C. for 2 h.
12) Read the plate on an HTRF® compatible reader (at 665 nm and 620 nm).
% Inhibition=100%−(Ratio−LC)/(HC−LC)*100%
HC: The average ratio of adding DMSO wells
LC: The average ratio of adding the top concentration of reference compounds wells
b) The “log (inhibitor) vs. response—Variable slope” model in GraphPad Prism 5.0 was used to fit the dose-response curve of each sample. The sample concentration (x) and its corresponding % Inhibition data (y) were substituted into the model. The sample concentration (abscissa) was x=log(x) transformed. The transformed xy was used as the sample curve to obtain the IC50.
c) Calculate the sample Ki according to the sample IC50 and red agonist Kd. S in the formula is the actual used concentration of red agonist.

GLP-1R [2] = target: T1, GLP-1R; assay: GLP-1R agonist cAMP stimulation assay (HTRF cAMP); assay type: cell-based; settings: HEK293 cell line expressing GLP-1 target; HTRF cAMP agonist mode, 30 min at RT
Procedure, shortened: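 GLP-1R-expressing cells were stimulated with 10-point, 3-fold compound dilutions for 30 min at RT; HTRF cAMP detection reagents were then added for 60 min and the 665/615 ratio read. Ratios were converted to cAMP via a standard curve and % activity scaled between DMSO and top-concentration GLP-1(7-37) reference wells.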

T1 sequence (P43220 24-463): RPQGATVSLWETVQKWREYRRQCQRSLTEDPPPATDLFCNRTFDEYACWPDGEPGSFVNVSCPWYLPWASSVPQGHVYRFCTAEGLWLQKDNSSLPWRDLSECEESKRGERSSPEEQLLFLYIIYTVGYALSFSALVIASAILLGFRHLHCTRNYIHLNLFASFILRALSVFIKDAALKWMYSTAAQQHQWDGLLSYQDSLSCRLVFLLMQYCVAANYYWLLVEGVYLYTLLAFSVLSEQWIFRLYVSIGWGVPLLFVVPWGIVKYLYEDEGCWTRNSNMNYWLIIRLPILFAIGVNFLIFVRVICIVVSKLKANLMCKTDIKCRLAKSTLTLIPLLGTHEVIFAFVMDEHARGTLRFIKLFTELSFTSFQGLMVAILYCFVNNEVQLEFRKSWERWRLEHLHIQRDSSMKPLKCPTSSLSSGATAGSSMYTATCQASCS

SMILES	IC50 (GLP-1R [1])	Ki (GLP-1R [1])	EC50 (GLP-1R [2])
O=C(Nc1ccc2c(c1)nc(CN1CC=C(c3cccc(OCc4ccc(Cl)cc4F)n3)CC1)n2C[C@@H]1CCO1)c1ccc2c(c1)C1(CC1)C(=O)N2 [Compound 203]	158 nM	90.3 nM	0.24 nM
Cc1n[nH]c2c(F)cc(NC(=O)c3ccc4c(c3)nc(CN3CC=C(c5cccc(OCc6ccc(Cl)cc6F)n5)CC3)n4C[C@@H]3CCO3)cc12 [Compound 153]	1450 nM	873 nM	0.59 nM
O=C(Nc1ccc2c(c1)nc(CN1CC=C(c3cccc(OCc4ccc(Cl)cn4)n3)CC1)n2C[C@@H]1CCO1)c1ccc2[nH]c(=O)[nH]c2c1 [Compound 207]	149 nM	82.4 nM	0.43 nM
Cc1n[nH]c2ccc(NC(=O)c3ccc4c(c3)nc(CN3CCC(c5cccc(OCc6ccc(Cl)cc6F)n5)CC3)n4C[C@@H]3CCO3)cc12 [Compound 88]	1840 nM	920 nM	4.45 nM
CCn1cncc1Cn1c(CN2CC=C(c3cccc(OCc4ccc(Cl)cc4F)n3)CC2)nc2cc(NC(=O)c3cc(F)c4[nH]nc(C)c4c3)ccc21 [Compound 408]	106 nM	68.4 nM	0.21 nM
Cc1n[nH]c2c(C)cc(NC(=O)c3ccc4c(c3)nc(CN3CCC(c5cccc(OCc6ccc(C#N)cc6F)n5)CC3)n4C[C@@H]3CCO3)cc12 [Compound 127]	1250 nM	744 nM	0.15 nM
Cc1n[nH]c2c(C)cc(NC(=O)c3ccc4c(c3)nc(CN3CCC(c5cccc(OCc6ccc(Cl)cc6F)n5)CC3)n4C[C@@H]3CCO3)cc12 [Compound 100]	1260 nM	893 nM	0.98 nM
O=C(NCC(=O)N1CC(F)(F)C[C@H]1C(=O)O)c1ccc2c(c1)nc(CN1CCC(c3cccc(OCc4ccc(Cl)cc4F)n3)CC1)n2C[C@@H]1CCO1 [Compound 62]	2630 nM	1320 nM	0.51 nM
CCn1cncc1Cn1c(Cc2c(F)cc(-c3cccc(OCc4ccc(Cl)cn4)n3)cc2F)nc2cc(NC(=O)c3cc(F)c4[nH]nc(C)c4c3)ccc21 [Compound 407]	180 nM	110 nM	0.16 nM
Cc1cc(NC(=O)c2ccc3c(c2)nc(CN2CCC(c4cccc(OCc5ccc(C#N)cc5F)n4)CC2)n3C[C@@H]2CCO2)cc2cn[nH]c12 [Compound 134]	1840 nM	904 nM	0.85 nM
Cc1n[nH]c2c(F)cc(C(=O)Nc3ccc4c(c3)nc(CN3CC=C(c5cccc(OCc6ccc(Cl)cc6F)n5)CC3)n4C[C@@H]3CCO3)cc12 [Compound 196]	152 nM	87.9 nM	0.17 nM
Cc1n[nH]c2c(F)cc(NC(=O)c3ccc4c(c3)nc(CN3CCC(c5cccc(OCc6ccc(C#N)cc6F)n5)CC3)n4C[C@@H]3CCO3)cc12 [Compound 126]	1400 nM	806 nM	0.18 nM
CCn1cncc1Cn1c(Cc2c(F)cc(-c3cccc4c3O[C@@](C)(c3ccc(Cl)cn3)O4)cc2F)nc2cc(NC(=O)c3cc(F)c4[nH]nc(C)c4c3)ccc21 [Compound 411]	120 nM	72.6 nM	0.33 nM
Cc1n[nH]c2c(C)cc(NC(=O)c3ccc4c(c3)nc(CN3CC=C(c5cccc(OCc6ccc(C#N)c7cc(Cl)oc67)n5)CC3)n4C[C@@H]3CCO3)cc12 [Compound 354]	2140 nM	1060 nM	0.21 nM
O=C(NCC(=O)N1C[C@H](O)C[C@H]1C(=O)O)c1ccc2c(c1)nc(CN1CCC(c3cccc(OCc4ccc(Cl)cc4F)n3)CC1)n2C[C@@H]1CCO1 [Compound 2, (2S,4R)-1-((2-((4-(6-((4-chloro-2-fluorobenzyl)oxy)pyridin-2-yl)piperidin-1-yl)methyl)-1-(((S)-oxetan-2-yl)methyl)-1H-benzo[d]imidazole-5-carbonyl)glycyl)-4-hydroxypyrrolidine-2-carboxylic acid]	345 nM	165 nM	0.32 nM
Cc1n[nH]c2c(F)cc(C(=O)Nc3ccc4c(c3)nc(Cc3cc(F)c(-c5cccc(OCc6ccc(Cl)cc6F)n5)cc3CO)n4C[C@@H]3CCO3)cc12 [Compound 416]	54.3 nM	29.3 nM	0.37 nM
Cc1n[nH]c2c(F)cc(C(=O)Nc3ccc4c(c3)nc(Cc3c(F)cc(-c5cccc6c5O[C@](C)(c5ccc(Cl)cn5)O6)cc3F)n4CC3CCO3)cc12 (some centres unmarked) [Compound 387]	346 nM	205 nM	0.86 nM
Cc1n[nH]c2c(C)cc(NC(=O)c3ccc4c(c3)nc(CN3CC=C(c5cccc(OCc6ccc(Cl)cc6F)n5)CC3)n4C[C@@H]3CCO3)cc12 [Compound 151]	1050 nM	519 nM	0.6 nM
Cc1n[nH]c2c(C)cc(C(=O)Nc3ccc4c(c3)nc(CN3CC=C(c5cccc6c5O[C@@](C)(c5ccc(Cl)cc5F)O6)CC3)n4CC3CCO3)cc12 (some centres unmarked) [Compound 384]	110 nM	68.3 nM	0.08 nM

SMILES	IC50 (GLP-1R [1])	Ki (GLP-1R [1])	EC50 (GLP-1R [2])
Cc1n[nH]c2c(C)cc(C(=O)Nc3ccc4c(c3)nc(CN3CCC(c5cccc6c5OC(C)(c5ccc(Cl)cc5F)O6)CC3)n4CC3CCO3)cc12 (centres unmarked) [Compound 341]	158 nM	95.5 nM	0.31 nM
Cc1n[nH]c2c(F)cc(C(=O)Nc3ccc4c(c3)nc(C3CC35CCN(c3cccc(OCc6ccc(Cl)cc6F)n3)CC5)n4CC3CCO3)cc12 (centres unmarked) [Compound 244]	189 nM	110 nM	0.33 nM
Cc1cc(NC(=O)c2ccc3c(c2)nc(CN2CCC(c4cccc(OCc5ccc(Cl)cc5F)n4)CC2)n3C[C@@H]2CCO2)cc2c1NC(=O)C21CC1 [Compound 105]	1940 nM	1000 nM	0.78 nM
O=C(Nc1ccc2c(c1)nc(CN1CC=C(c3cccc(OCc4ccc(Cl)cc4F)n3)CC1)n2C[C@@H]1CCO1)c1ccc2[nH]c(=O)[nH]c2c1 [Compound 142]	2010 nM	1000 nM	0.21 nM
Cc1n[nH]c2c(F)cc(NC(=O)c3ccc4c(c3)nc(CN3CCC(c5cccc6c5OC(C)(c5ccc(C#N)cc5F)O6)CC3)n4CC3CCO3)cc12 (centres unmarked) [Compound 334]	1210 nM	692 nM	0.61 nM
Cc1cc(NC(=O)c2ccc3c(c2)nc(CN2CCC(c4cccc(OCc5ccc(Cl)cc5F)n4)CC2)n3C[C@@H]2CCO2)cc2cn[nH]c12 [Compound 80]	2320 nM	1160 nM	2.05 nM
Cc1cc(NC(=O)c2ccc3c(c2)nc(CN2CC=C(c4cccc(OCc5ccc(C#N)cc5F)n4)CC2)n3C[C@@H]2CCO2)cc2c1NC(=O)C21CC1 [Compound 178]	875 nM	430 nM	0.19 nM
Cc1cc(NC(=O)c2ccc3c(c2)nc(CN2CC=C(c4cccc(OCc5cc(F)c(C#N)s5)n4)CC2)n3C[C@@H]2CCO2)cc2c(C(F)(F)F)n[nH]c12 [Compound 365]			1.32 nM
O=C(Nc1ccc2[nH]ncc2c1)c1ccc2c(c1)nc(CN1CCC(c3cccc(OCc4ccc(Cl)cc4F)n3)CC1)n2C[C@@H]1CCO1 [Compound 87]			10.1 nM
COCCn1c(CN2CCC(c3cccc(OCc4ccc(Cl)cc4F)n3)CC2)nc2cc(C(=O)Nc3ccc(O)cc3)ccc21 [Compound 75]			> 10000 nM
COCCn1c(CN2CCC(c3cccc(OCc4ccc(Cl)cc4F)n3)CC2)nc2cc(C(=O)N3Cc4[nH]nc(N)c4C3)ccc21 [Compound 26]			> 10000 nM
O=C(Nc1ccn2nccc2c1)c1ccc2c(c1)nc(CN1CC=C(c3cccc(OCc4ccc(Cl)cc4F)n3)CC1)n2CC1CCO1 (centres unmarked) [Compound 148]			21.1 nM
O=C(Nc1ccc2c(c1)nc(CN1CC=C(c3cccc(OCc4ccc(Cl)cc4F)n3)CC1)n2C[C@@H]1CCO1)c1cc(F)c2[nH]ncc2c1 [Compound 205]			0.98 nM
O=C(Nc1cc(F)c2[nH]ncc2c1)c1ccc2c(c1)nc(CN1CC=C(c3cccc(OCc4ccc(Cl)cc4F)n3)CC1)n2C[C@@H]1CCO1 [Compound 152]			0.64 nM
CC(C)c1n[nH]c2ccc(C(=O)Nc3ccc4c(c3)nc(CN3CC=C(c5cccc(OCc6ccc(Cl)cc6F)n5)CC3)n4C[C@@H]3CCO3)cc12 [Compound 200]			0.82 nM
N#Cc1ccc(COc2cccc(C3=CCN(Cc4nc5cc(NC(=O)c6cc(F)c7c(c6)C6(CC6)C(=O)N7)ccc5n4C[C@@H]4CCO4)CC3)n2)c(F)c1 [Compound 227]			0.22 nM
Cc1cc(NC(=O)c2ccc3c(c2)nc(CN2CCC(c4cccc(OCc5ccc(Cl)cn5)n4)CC2)n3C[C@@H]2CCO2)cc2c1NC(=O)C21CC1 [Compound 131]			1.21 nM
O=C(Nc1cc2[nH]ccc2s1)c1ccc2c(c1)nc(CN1CC=C(c3cccc(OCc4ccc(Cl)cc4F)n3)CC1)n2C[C@@H]1CCO1 [Compound 402]			73.2 nM
